Numbers after ± are expanded uncertainties.
Experiment: excess molar enthalpy (molar enthalpy of mixing); xn = mol fraction of the nth substance listed
Conditions: 298.15 K, 101 kPa, Liquid, ISOTHERMAL TITRATION CALORIMETRY

CCCCCOCCCCC [dipentyl ether] + CCCCCCCCCCCCCCCC
Conditions | excess molar enthalpy [kcal/mol]
x1 = 0.0349 | 0.00884 ± 0.000239
x1 = 0.0674 | 0.0165 ± 0.000478
x1 = 0.0979 | 0.0229 ± 0.000478
x1 = 0.1264 | 0.0287 ± 0.000478
x1 = 0.1531 | 0.0335 ± 0.000478
x1 = 0.1783 | 0.0378 ± 0.000478
x1 = 0.2066 | 0.0423 ± 0.000717
x1 = 0.233 | 0.0461 ± 0.000717
x1 = 0.2577 | 0.0495 ± 0.000717
x1 = 0.2809 | 0.0523 ± 0.000717
x1 = 0.3027 | 0.0545 ± 0.000717
x1 = 0.3231 | 0.0564 ± 0.000717
x1 = 0.3459 | 0.0583 ± 0.000717
x1 = 0.3673 | 0.0598 ± 0.000956
x1 = 0.3873 | 0.0612 ± 0.000956
x1 = 0.4061 | 0.0621 ± 0.000956
x1 = 0.4238 | 0.0629 ± 0.000956
x1 = 0.4405 | 0.0633 ± 0.000956
x1 = 0.4593 | 0.0638 ± 0.000956
x1 = 0.4768 | 0.0641 ± 0.000956
x1 = 0.4933 | 0.0643 ± 0.000956
x1 = 0.5087 | 0.0643 ± 0.000956
x1 = 0.5158 | 0.0645 ± 0.000956
x1 = 0.5271 | 0.0645 ± 0.000956
x1 = 0.5389 | 0.0643 ± 0.000956
x1 = 0.5491 | 0.0643 ± 0.000956
x1 = 0.5598 | 0.0641 ± 0.000956
x1 = 0.5706 | 0.0638 ± 0.000956
x1 = 0.5823 | 0.0633 ± 0.000956
x1 = 0.5943 | 0.0629 ± 0.000956
x1 = 0.6067 | 0.0624 ± 0.000956
x1 = 0.6197 | 0.0617 ± 0.000956
x1 = 0.6333 | 0.0607 ± 0.000956
x1 = 0.645 | 0.06 ± 0.000956
x1 = 0.6527 | 0.059 ± 0.000956
x1 = 0.6699 | 0.0578 ± 0.000717
x1 = 0.6831 | 0.0566 ± 0.000717
x1 = 0.6968 | 0.0552 ± 0.000717
x1 = 0.7111 | 0.0535 ± 0.000717
x1 = 0.7238 | 0.0519 ± 0.000717
x1 = 0.737 | 0.0504 ± 0.000717
x1 = 0.7506 | 0.0485 ± 0.000717
x1 = 0.7648 | 0.0464 ± 0.000717
x1 = 0.7795 | 0.0442 ± 0.000717
x1 = 0.7984 | 0.0416 ± 0.000717
x1 = 0.8182 | 0.039 ± 0.000717
x1 = 0.8315 | 0.0363 ± 0.000478
x1 = 0.8512 | 0.0332 ± 0.000478
x1 = 0.8718 | 0.0301 ± 0.000478
x1 = 0.8935 | 0.0265 ± 0.000478
x1 = 0.9162 | 0.0227 ± 0.000478
x1 = 0.9292 | 0.0196 ± 0.000478
x1 = 0.9425 | 0.0163 ± 0.000239
x1 = 0.9563 | 0.0124 ± 0.000239
x1 = 0.9704 | 0.0086 ± 0.000239
x1 = 0.985 | 0.00454 ± 0.000239

CCCCCOCCCCC [dipentyl ether] + CCCCCCCCCCCC
Conditions | excess molar enthalpy [kcal/mol]
x1 = 0.0242 | 0.00454 ± 0.000239
x1 = 0.0473 | 0.00884 ± 0.000239
x1 = 0.0693 | 0.0122 ± 0.000239
x1 = 0.0903 | 0.0155 ± 0.000239
x1 = 0.1104 | 0.0184 ± 0.000478
x1 = 0.1296 | 0.021 ± 0.000478
x1 = 0.148 | 0.0234 ± 0.000478
x1 = 0.1657 | 0.0256 ± 0.000478
x1 = 0.1869 | 0.028 ± 0.000478
x1 = 0.2071 | 0.0301 ± 0.000478
x1 = 0.2262 | 0.032 ± 0.000478
x1 = 0.2445 | 0.0337 ± 0.000478
x1 = 0.2619 | 0.0351 ± 0.000478
x1 = 0.2786 | 0.0363 ± 0.000478
x1 = 0.2989 | 0.0378 ± 0.000478
x1 = 0.3181 | 0.039 ± 0.000717
x1 = 0.3363 | 0.0399 ± 0.000717
x1 = 0.3535 | 0.0409 ± 0.000717
x1 = 0.3699 | 0.0416 ± 0.000717
x1 = 0.3855 | 0.0423 ± 0.000717
x1 = 0.4003 | 0.0425 ± 0.000717
x1 = 0.4144 | 0.0428 ± 0.000717
x1 = 0.431 | 0.0433 ± 0.000717
x1 = 0.4466 | 0.0433 ± 0.000717
x1 = 0.4614 | 0.0435 ± 0.000717
x1 = 0.4754 | 0.0435 ± 0.000717
x1 = 0.4887 | 0.0435 ± 0.000717
x1 = 0.5014 | 0.0433 ± 0.000717
x1 = 0.5129 | 0.0433 ± 0.000717
x1 = 0.5241 | 0.0433 ± 0.000717
x1 = 0.5358 | 0.043 ± 0.000717
x1 = 0.5481 | 0.043 ± 0.000717
x1 = 0.5609 | 0.0428 ± 0.000717
x1 = 0.5743 | 0.0425 ± 0.000717
x1 = 0.5884 | 0.0423 ± 0.000717
x1 = 0.6031 | 0.0418 ± 0.000717
x1 = 0.6161 | 0.0413 ± 0.000717
x1 = 0.6297 | 0.0409 ± 0.000717
x1 = 0.644 | 0.0402 ± 0.000717
x1 = 0.6589 | 0.0397 ± 0.000717
x1 = 0.6745 | 0.0387 ± 0.000717
x1 = 0.6908 | 0.0378 ± 0.000478
x1 = 0.7056 | 0.0366 ± 0.000478
x1 = 0.721 | 0.0354 ± 0.000478
x1 = 0.7371 | 0.0342 ± 0.000478
x1 = 0.7539 | 0.0327 ± 0.000478
x1 = 0.7715 | 0.0313 ± 0.000478
x1 = 0.79 | 0.0294 ± 0.000478
x1 = 0.8057 | 0.028 ± 0.000478
x1 = 0.8221 | 0.0261 ± 0.000478
x1 = 0.8391 | 0.0241 ± 0.000478
x1 = 0.8569 | 0.022 ± 0.000478
x1 = 0.8754 | 0.0196 ± 0.000478
x1 = 0.8947 | 0.0167 ± 0.000478
x1 = 0.9107 | 0.0146 ± 0.000239
x1 = 0.9273 | 0.0122 ± 0.000239
x1 = 0.9445 | 0.00956 ± 0.000239
x1 = 0.9623 | 0.00645 ± 0.000239
x1 = 0.9808 | 0.00335 ± 0.000239

CCCCCCCCC(C)=O [2-decanone] + CCCCCCCCCCCCCC
Conditions | excess molar enthalpy [kcal/mol]
x1 = 0.0282 | 0.0361 ± 0.000717
x1 = 0.0549 | 0.0664 ± 0.000956
x1 = 0.0805 | 0.092 ± 0.0012
x1 = 0.1041 | 0.114 ± 0.00143
x1 = 0.1268 | 0.132 ± 0.00167
x1 = 0.1484 | 0.148 ± 0.00191
x1 = 0.1741 | 0.165 ± 0.00215
x1 = 0.1983 | 0.18 ± 0.00239
x1 = 0.2212 | 0.192 ± 0.00239
x1 = 0.2427 | 0.202 ± 0.00263
x1 = 0.2632 | 0.211 ± 0.00263
x1 = 0.2825 | 0.218 ± 0.00287
x1 = 0.3044 | 0.225 ± 0.00287
x1 = 0.325 | 0.23 ± 0.00287
x1 = 0.3444 | 0.235 ± 0.00287
x1 = 0.3628 | 0.238 ± 0.00311
x1 = 0.3801 | 0.241 ± 0.00311
x1 = 0.3965 | 0.243 ± 0.00311
x1 = 0.4145 | 0.245 ± 0.00311
x1 = 0.4313 | 0.245 ± 0.00311
x1 = 0.4472 | 0.246 ± 0.00311
x1 = 0.4623 | 0.246 ± 0.00311
x1 = 0.4765 | 0.245 ± 0.00311
x1 = 0.4901 | 0.245 ± 0.00311
x1 = 0.5029 | 0.244 ± 0.00311
x1 = 0.5151 | 0.242 ± 0.00311
x1 = 0.5292 | 0.241 ± 0.00311
x1 = 0.5425 | 0.239 ± 0.00311
x1 = 0.555 | 0.236 ± 0.00311
x1 = 0.5669 | 0.234 ± 0.00287
x1 = 0.5782 | 0.232 ± 0.00287
x1 = 0.5889 | 0.229 ± 0.00287
x1 = 0.5991 | 0.227 ± 0.00287
x1 = 0.6088 | 0.224 ± 0.00287
x1 = 0.6201 | 0.221 ± 0.00287
x1 = 0.6308 | 0.217 ± 0.00287
x1 = 0.6408 | 0.214 ± 0.00263
x1 = 0.6504 | 0.211 ± 0.00263
x1 = 0.6594 | 0.208 ± 0.00263
x1 = 0.668 | 0.205 ± 0.00263
x1 = 0.6762 | 0.202 ± 0.00263
x1 = 0.684 | 0.199 ± 0.00263
x1 = 0.7031 | 0.189 ± 0.00239
x1 = 0.7191 | 0.182 ± 0.00239
x1 = 0.7334 | 0.176 ± 0.00215
x1 = 0.7483 | 0.169 ± 0.00215
x1 = 0.7638 | 0.162 ± 0.00215
x1 = 0.7799 | 0.154 ± 0.00191
x1 = 0.7968 | 0.145 ± 0.00191
x1 = 0.8144 | 0.135 ± 0.00167
x1 = 0.8298 | 0.126 ± 0.00167
x1 = 0.8458 | 0.116 ± 0.00143
x1 = 0.8624 | 0.106 ± 0.00143
x1 = 0.8797 | 0.0939 ± 0.0012
x1 = 0.8977 | 0.0815 ± 0.0012
x1 = 0.9133 | 0.07 ± 0.000956
x1 = 0.9294 | 0.0578 ± 0.000956
x1 = 0.9461 | 0.0452 ± 0.000717
x1 = 0.9634 | 0.0311 ± 0.000478
x1 = 0.9814 | 0.016 ± 0.000478
